In patent US20250188092A1, “RIFAMYCIN ANALOGS” (THE REGENTS OF THE UNIVERSITY OF MICHIGAN, priority 2021, published 2025):
≈ marks a conversion by molar mass, not a printed value.

Legend:
MTB H37Rv ATCC 27294 = experiment: MIC, microplate Alamar Blue assay (MABA); type: cell-based, Mycobacterium tuberculosis; details: for MIC90 / MIC: Mycobacterium tuberculosis, MTB H37Rv ATCC 27294, microplate Alamar Blue assay, lowest concentration giving ≥90% reduction in fluorescence; for MIC: read-out: MIC90 MABA
M. tuberculosis H37Rv = experiment: Minimum bactericidal concentration (MBC, CFU Assay); type: cell-based, Mycobacterium tuberculosis; details: for MBC99 Day 7 (CFU Assay) MBC99 Rel to RMP: CFU Assay MBC99 relative to rifampin (RMP = 1); for MBC: Mycobacterium tuberculosis, 168 h, Day 7, M. tuberculosis H37Rv, ≥99% reduction in colony forming units, read-out: MBC99 Day 7 (CFU Assay) MBC99
DPX2 cells = details: for DPX2 Viability @ 6.25 μM: 24 h; for DPX2 Viability @ 25 μM: human
VERO cells (ATCC CRL-81) = experiment: Vero cell toxicity; type: cell-based; details: Chlorocebus sabaeus, Vero; 72 hours exposure
Experimental: Cytotoxicity for a mammalian cell line was determined by exposing VERO cells (ATCC CRL-81) to serial dilutions of test compounds for 72 hours, followed by addition of resazurin and measurement of fluorescence after 4 hours incubation (Choules, et al., Antimnicrob. Agents Chemother. 2019, 63, e02204-02218).

SMILES | MIC90 MABA Rel to RMP (MTB H37Rv ATCC 27294) | MIC90 (MTB H37Rv ATCC 27294) [µM] | MBC99 Day 7 (CFU Assay) MBC99 Rel to RMP (M. tuberculosis H37Rv) | MBC (M. tuberculosis H37Rv) [µM] | DPX2 Viability @ 6.25 μM (DPX2 cells) [%] | DPX2 Viability @ 25 μM (DPX2 cells) [%] | IC50 (VERO cells (ATCC CRL-81)) [µM] | MIC (MTB H37Rv ATCC 27294) [µM] | MBC better than that of rifampin (M. tuberculosis H37Rv) [fold]
CO[C@H]1/C=C/O[C@@]2(C)Oc3c(C)c(O)c4c(=O)c(c5oc6cc(N7CCN(CCCO[C@@H]8COc9nc([N+](=O)[O-])cn9C8)CC7)cc(C)c6nc-5c4c3C2=O)NC(=O)/C(C)=C\C=C\[C@H](C)[C@H](O)[C@@H](C)[C@@H](O)[C@@H](C)[C@H](OC(C)=O)[C@@H]1C [Compound 29d, (7S,9E,11S,12R,13S,14R,15R,16R,17S,18S,19E,21Z)-2,15,17-Trihydroxy-11-methoxy-3,7,12,14,16,18,22,32-octamethyl-30-[4-(3-{[(6S)-2-nitro-5H,6H,7H-imidazo[2,1-b][1,3]oxazin-6-yl]oxy}propyl)piperazin-1-yl]-6,23,37-trioxo-8,27,38-trioxa-24,34-diazahexacyclo[23.11.1.1^4,7.0^5,36.0^26,35.0^28,33]octatriaconta-1(36)2,4,9,19,21,25,28,30,32,34-undecaen-13-yl acetate] | 1.37 | 0.037 | 0.62 | 0.08 | 114 | 101 | > 10 | – | –
CO[C@H]1/C=C/O[C@@]2(C)Oc3c(C)c(O)c4c(=O)c(c5oc6cc(C)cc(N7CCN(C(=O)c8cccc(-c9ccccn9)c8)CC7)c6nc-5c4c3C2=O)NC(=O)/C(C)=C\C=C\[C@H](C)[C@H](O)[C@@H](C)[C@@H](O)[C@@H](C)[C@H](OC(C)=O)[C@@H]1C [Compound 30g, (7S,9E,11S,12R,13S,14R,15R,16R,17S,18S,19E,21Z)-2,15,17-Trihydroxy-11-methoxy-3,7,12,14,16,18,22,30-octamethyl-6,23,37-trioxo-32-{4-[3-(pyridin-2-yl)benzoyl]piperazin-1-yl}-8,27,38-trioxa-24,34-diazahexacyclo[23.11.1.1^4,7.0^5,36.0^26,35.0^28,33]octatriaconta-1(36)2,4,9,19,21,25,28,30,32,34-undecaen-13-yl acetate] | 0.96 | 0.026 | <0.08 | < 0.02 | 99 | 61 | > 10 | – | –
CO[C@H]1/C=C/O[C@@]2(C)Oc3c(C)c(O)c4c(=O)c(c5oc6cc(N7CCN(CC(C)C)CC7)cc(OCc7ccc(CN8CCNCC8)cc7)c6nc-5c4c3C2=O)NC(=O)/C(C)=C\C=C\[C@H](C)[C@H](O)[C@@H](C)[C@@H](O)[C@@H](C)[C@H](OC(C)=O)[C@@H]1C [Compound 17b, (7S,9E,11S,12R,13S,14R,15R,16R,17S,18S,19E,21Z)-2,15,17-Trihydroxy-11-methoxy-3,7,12,14,16,18,22-heptamethyl-30-[4-(2-methylpropyl)piperazin-1-yl]-6,23,37-trioxo-32-({4-[(piperazin-1-yl)methyl]phenyl}methoxy)-8,27,38-trioxa-24,34-diazahexacyclo[23.11.1.1^4,7.0^5,36.0^26,35.0^28,33]octatriaconta-1(36)2,4,9,19,21,25,28,30,32,34-undecaen-13-yl acetate] | 0.24 | – | 0.15 | 0.02 | 109 | 45 | 7.9 | < 0.016 | ~5
CO[C@H]1/C=C/O[C@@]2(C)Oc3c(C)c(O)c4c(=O)c(c5oc6cc(C)cc(N7CCN(C(=O)c8ccc9occc9c8)CC7)c6nc-5c4c3C2=O)NC(=O)/C(C)=C\C=C\[C@H](C)[C@H](O)[C@@H](C)[C@@H](O)[C@@H](C)[C@H](OC(C)=O)[C@@H]1C [Compound 30h, (7S,9E,11S,12R,13S,14R,15R,16R,17S,18S,19E,21Z)-32-[4-(1-Benzofuran-5-carbonyl)piperazin-1-yl]-2,15,17-trihydroxy-11-methoxy-3,7,12,14,16,18,22,30-octamethyl-6,23,37-trioxo-8,27,38-trioxa-24,34-diazahexacyclo[23.11.1.1^4,7.0^5,36.0^26,35.0^28,33]octatriaconta-1(36)2,4,9,19,21,25,28,30,32,34-undecaen-13-yl acetate] | 0.70 | 0.019 | <0.08 | < 0.02 | 100 | 57 | > 10 | – | –
CO[C@H]1/C=C/O[C@@]2(C)Oc3c(C)c(O)c4c(=O)c(c5oc6cccc(OCc7cccc(CN8CCN(C(=O)Cn9ccnc9)CC8)c7)c6nc-5c4c3C2=O)NC(=O)/C(C)=C\C=C\[C@H](C)[C@H](O)[C@@H](C)[C@@H](O)[C@@H](C)[C@H](OC(C)=O)[C@@H]1C [Compound 11e, (7S,9E,11S,12R,13S,14R,15R,16R,17S,18S,19E,21Z)-2,15,17-Trihydroxy-32-{[3-({4-[2-(1H-imidazol-1-yl)acetyl]piperazin-1-yl}methyl)phenyl]methoxy}-11-methoxy-3,7,12,14,16,18,22-heptamethyl-6,23,37-trioxo-8,27,38-trioxa-24,34-diazahexacyclo[23.11.1.1^4,7.0^5,36.0^26,35.0^28,33]octatriaconta-1(36)2,4,9,19,21,25,28,30,32,34-undecaen-13-yl acetate] | 0.93 | – | 0.15 | 0.02 | 105 | 96 | > 8 | 0.048 | –
CO[C@H]1/C=C/O[C@@]2(C)Oc3c(C)c(O)c4c(=O)c(c5oc6cc(N7CCN(C(=O)c8cccc(-c9ccccn9)c8)CC7)cc(C)c6nc-5c4c3C2=O)NC(=O)/C(C)=C\C=C\[C@H](C)[C@H](O)[C@@H](C)[C@@H](O)[C@@H](C)[C@H](OC(C)=O)[C@@H]1C [Compound 29b, (7S,9E,11S,12R,13S,14R,15R,16R,17S,18S,19E,21Z)-2,15,17-Trihydroxy-11-methoxy-3,7,12,14,16,18,22,32-octamethyl-6,23,37-trioxo-30-(4-[3-(pyridin-2-yl)benzoyl]piperazin-1-yl)-8,27,38-trioxa-24,34-diazahexacyclo-[23.11.1.1^4,7.0^5,36.0^26,35.0^28,33]octatriaconta-1(36)2,4,9,19,21,25,28,30,32,34-undecaen-13-yl acetate] | 0.32 | 0.0087 | – | – | 136 | 128 | > 10 | – | –
CO[C@H]1/C=C/O[C@@]2(C)Oc3c(C)c(O)c4c(=O)c(c5oc6cccc(OCc7ccc(CN8CCN(C)CC8)cc7)c6nc-5c4c3C2=O)NC(=O)/C(C)=C\C=C\[C@H](C)[C@H](O)[C@@H](C)[C@@H](O)[C@@H](C)[C@H](OC(C)=O)[C@@H]1C [Compound 16e, (7S,9E,11S,12R,13S,14R,15R,16R,17S,18S,19E,21Z)-2,15,17-trihydroxy-11-methoxy-3,7,12,14,16,18,22-heptamethyl-32-({4-[(4-methylpiperazin-1-yl)methyl]phenyl}methoxy)-6,23,37-trioxo-8,27,38-trioxa-24,34-diazahexacyclo[23.11.1.1^4,7.0^5,36.0^26,35.0^28,33]octatriaconta-1,3,5(36)9,19,21,25,28,30,32,34-undecaen-13-yl acetate] | 0.16 | 0.0064 | – | – | 63 | 41 | > 10 | – | –
CO[C@H]1/C=C/O[C@@]2(C)Oc3c(C)c(O)c4c(=O)c(c5oc6cc(N7CCN(CC(=O)O)CC7)cc(C)c6nc-5c4c3C2=O)NC(=O)/C(C)=C\C=C\[C@H](C)[C@H](O)[C@@H](C)[C@@H](O)[C@@H](C)[C@H](OC(C)=O)[C@@H]1C [Compound 29h, 2-{4-[(7S,9E,11S,12R,13S,14R,15R,16R,17S,18S,19E,21Z)-13-(acetyloxy)-2,15,17-trihydroxy-11-methoxy-3,7,12,14,16,18,22,32-octamethyl-6,23,37-trioxo-8,27,38-trioxa-24,34-diazahexacyclo[23.11.1.1^4,7.0^5,36.0^26,35.0^28,33]octatriaconta-1,3,5(36)9,19,21,25,28,30,32,34-undecaen-30-yl]piperazin-1-yl}acetic acid] | 0.69 | 0.018 (≈ 0.0169 µg/mL) | – | – | 109 | 98 | > 10 | – | –
CO[C@H]1/C=C/O[C@@]2(C)Oc3c(C)c(O)c4c(=O)c(c5oc6cc(N7CCN(C(=O)c8cccc(-n9ccnc9)c8)CC7)cc(C)c6nc-5c4c3C2=O)NC(=O)/C(C)=C\C=C\[C@H](C)[C@H](O)[C@@H](C)[C@@H](O)[C@@H](C)[C@H](OC(C)=O)[C@@H]1C [Compound 29a, (7S,9E,11S,12R,13S,14R,15R,16R,17S,18S,19E,21Z)-2,15,17-Trihydroxy-30-{4-[3-(1H-imidazol-1-yl)benzoyl]piperazin-1-yl}-11-methoxy-3,7,12,14,16,18,22,32-octamethyl-6,23,37-trioxo-8,27,38-trioxa-24,34-diazahexacyclo[23.11.1.1^4,7.0^5,36.0^26,35.0^28,33]octatriaconta-1(36)2,4,9,19,21,25,28,30,32,34-undecaen-13-yl acetate] | 1.33 | 0.036 | 0.15 | 0.02 | – | 149 | > 10 | – | –
